Data reported in patent publication US8557763B2, “Synthetic peptides that enhance tight junction permeability” (Alba Therapeutics Corporation, priority 2007, dated 2013).
Where no end group is shown, it is not given here. [ ]: non-standard residue; d: D form. AllylGly = C=CC[C@H](N)C(=O)O

Experiments:
CaCo2 monolayers [1] = test: Lucifer Yellow (LY) permeability assay through CaCo2 monolayers; type: cell-based; parameters: key to Enhanced LY permeability: + indicates an enhancement of the permeability of the tight junctions were observed; − indicates no enhancement of permeability was observed; conditions: CaCo2 monolayers, Lucifer Yellow flux
Description: (§1) Agonists of tight junctions can be identified by their ability to enhance the flux of compounds (e.g. ions, Lucifer Yellow) through a cell monolayer that comprises tight junctions; or by their ability to reduce TEER across a cell monolayer that comprises tight junctions. Treatment of CaCo2 monolayers with peptide FCIGRL (SEQ ID NO: 1) led to a 51-fold enhancement of Lucifer Yellow permeability through CaCo2 monolayers compared to vehicle alone.
(§2) Tight junction agonists can be identified and tested using the following method:
(§3) Determination of TEER and Lucifer Yellow Flux
(§4) Prepare Modified Hank's Balanced Salt Solution (MHBSS) by obtaining 1 L bottle of HBSS removing 10 ml of HBSS and replacing it with 10 ml HEPES buffer pH 7.0. Adjust pH to 7.4±0.1 using concentrated NaOH (10N).
(§5) Remove CaCo-2 cells from incubator, grown on 12-well, 3.0 μM, polycarbonate Transwell® filters (Corning) and record passage#, date cells seeded and age in days.
(§6) Aspirate cell culture medium from both the apical (AP) and basolateral (BL) compartments, replacing with 0.5 ml and 1.5 ml of MHBSS, respectively. Incubate cells at 37° C. for 30 minutes.
(§7) Aspirate solution from the apical compartment of each filter (n=3 per condition) and replace with 0.5 ml of control and test solutions containing Lucifer Yellow and test compound if appropriate.
(§8) Place all plates into incubator set at 37° C. (±0.2), 50 RPM (±5) for a total of 180 minutes.
At t=60, 120 and 180 minutes remove […] from each basolateral compartment and place it in a 96-well plate for Lucifer Yellow analysis, replace with 100 μl of MHBSS.
Make a Lucifer Yellow standard curve with the following dilutions (7500 μM, 3750 μM, 750 μM, 375 μM, 37.5 μM, 7.5 μM, 3.75 μM, 0.75 μM) and pipette 100 μL of each into a 96-well plate except for the first three standards mentioned above which require a 1:10 dilutions prior to transferring to the 96-well plate.
Harvest the remaining start solutions and what is left in each apical compartment into 1.5 ml vials. Freeze at −20° C. for future analysis.
Analyze each 96-well plate in a Tecan Spectra Fluor Plus using Magellan at 485 and 535 nm.
(§9) Cells: CaCo-2 cells passage 40-60 grown on Transwell® plates for 21-28 days
(§10) Culture Medium: DMEM supplemented with 10% fetal bovine serum, 1% NEAA, 1% Penn/Strep
(§11) Buffers: Hank's Balanced Salt Solution (HBSS) without calcium and magnesium
(§12) Flasks: 100×20 mm Tissue culture dish Falcon.
(§13) Plates: 12 well polycarbonate Transwell® filters; 0.3 uM pore size

CaCo2 monolayers [2] = test: Trans Epithelial Electric Resistance (TEER) across CaCo2 monolayers; type: cell-based; parameters: key to Reduced TEER: + indicates an enhancement of the permeability of the tight junctions were observed; − indicates no enhancement of permeability was observed; conditions: CaCo2 monolayers
Description: as §1
Treatment of CaCo2 monolayers with peptide FCIGRL led to a 16-fold decrease in TEER across CaCo2 monolayers compared to vehicle alone.
as §2, §3, §4, §5, §6
Using the MilliCell®-ERS instrument (Millipore), measure and record the transepithelial electrical resistance (TEER) across each filter and record.
as §7, §8
At t=30, 60, 120 and 180 minutes, measure and record the transepithelial electrical resistance (TEER) across each filter using the MilliCell-ERS instrument.
as §9, §10, §11, §12, §13

Substance	Enhanced LY permeability (CaCo2 monolayers [1])	Reduced TEER (CaCo2 monolayers [2])
11 (V[AllylGly]IGRL-NH2; N-terminus assumed; SMILES C=CC[C@H](NC(=O)[C@@H](N)C(C)C)C(=O)N[C@H](C(=O)NCC(=O)N[C@@H](CCCNC(=N)N)C(=O)N[C@@H](CC(C)C)C(N)=O)[C@@H](C)CC) [compound 11]	−	−
76 (F[AllylGly]IGRF-NH2; N-terminus assumed; SMILES C=CC[C@H](NC(=O)[C@@H](N)Cc1ccccc1)C(=O)N[C@H](C(=O)NCC(=O)N[C@@H](CCCNC(=N)N)C(=O)N[C@@H](Cc1ccccc1)C(N)=O)[C@@H](C)CC) [compound 76]	+	+
74 (F[AllylGly]IGRD-NH2; N-terminus assumed; SMILES C=CC[C@H](NC(=O)[C@@H](N)Cc1ccccc1)C(=O)N[C@H](C(=O)NCC(=O)N[C@@H](CCCNC(=N)N)C(=O)N[C@@H](CC(=O)O)C(N)=O)[C@@H](C)CC) [compound 74]	+	+
37 (F[AllylGly]NGRL-NH2; N-terminus assumed; SMILES C=CC[C@H](NC(=O)[C@@H](N)Cc1ccccc1)C(=O)N[C@@H](CC(N)=O)C(=O)NCC(=O)N[C@@H](CCCNC(=N)N)C(=O)N[C@@H](CC(C)C)C(N)=O) [compound 37]	+	+
16 (K[AllylGly]IGRL-NH2; N-terminus assumed; SMILES C=CC[C@H](NC(=O)[C@@H](N)CCCCN)C(=O)N[C@H](C(=O)NCC(=O)N[C@@H](CCCNC(=N)N)C(=O)N[C@@H](CC(C)C)C(N)=O)[C@@H](C)CC) [compound 16]	−	−
20 (R[AllylGly]IGRL-NH2; N-terminus assumed; SMILES C=CC[C@H](NC(=O)[C@@H](N)CCCNC(=N)N)C(=O)N[C@H](C(=O)NCC(=O)N[C@@H](CCCNC(=N)N)C(=O)N[C@@H](CC(C)C)C(N)=O)[C@@H](C)CC) [compound 20]	+	−
71 (F[AllylGly]IGPL-NH2; N-terminus assumed; SMILES C=CC[C@H](NC(=O)[C@@H](N)Cc1ccccc1)C(=O)N[C@H](C(=O)NCC(=O)N1CCC[C@H]1C(=O)N[C@@H](CC(C)C)C(N)=O)[C@@H](C)CC) [compound 71]	+	−
1 (FCIGRL; Peptide tight junction agonist) [compound 1]	+	+
17 (A[AllylGly]IGRL-NH2; N-terminus assumed; SMILES C=CC[C@H](NC(=O)[C@H](C)N)C(=O)N[C@H](C(=O)NCC(=O)N[C@@H](CCCNC(=N)N)C(=O)N[C@@H](CC(C)C)C(N)=O)[C@@H](C)CC) [compound 17]	−	−
29 (F[AllylGly]GGRL-NH2; N-terminus assumed; SMILES C=CC[C@H](NC(=O)[C@@H](N)Cc1ccccc1)C(=O)NCC(=O)NCC(=O)N[C@@H](CCCNC(=N)N)C(=O)N[C@@H](CC(C)C)C(N)=O) [compound 29]	+	+
18 (H[AllylGly]IGRL-NH2; N-terminus assumed; SMILES C=CC[C@H](NC(=O)[C@@H](N)Cc1c[nH]cn1)C(=O)N[C@H](C(=O)NCC(=O)N[C@@H](CCCNC(=N)N)C(=O)N[C@@H](CC(C)C)C(N)=O)[C@@H](C)CC) [compound 18]	−	−
89 (FXIGRP-NH2; not fully specified (residue 2); printed as Phe−Allylaly−Ile−Gly−Arg−Pro−NH2) [compound 89]	−	−
13 (G[AllylGly]IGRL; not fully specified; printed as Gly−AllylGly−Ile−Gly−Arg−Leu−NR2) [compound 13]	−	−
69 (F[AllylGly]IGIL-NH2; N-terminus assumed; SMILES C=CC[C@H](NC(=O)[C@@H](N)Cc1ccccc1)C(=O)N[C@H](C(=O)NCC(=O)N[C@H](C(=O)N[C@@H](CC(C)C)C(N)=O)[C@@H](C)CC)[C@@H](C)CC) [compound 69]		−
78 (F[AllylGly]IGRG-NH2; N-terminus assumed; SMILES C=CC[C@H](NC(=O)[C@@H](N)Cc1ccccc1)C(=O)N[C@H](C(=O)NCC(=O)N[C@@H](CCCNC(=N)N)C(=O)NCC(N)=O)[C@@H](C)CC) [compound 78]	+	−
23 (F[AllylGly]FGRL-NH2; N-terminus assumed; SMILES C=CC[C@H](NC(=O)[C@@H](N)Cc1ccccc1)C(=O)N[C@@H](Cc1ccccc1)C(=O)NCC(=O)N[C@@H](CCCNC(=N)N)C(=O)N[C@@H](CC(C)C)C(N)=O) [compound 23]	+	+
52 (F[AllylGly]INRL-NH2; N-terminus assumed; SMILES C=CC[C@H](NC(=O)[C@@H](N)Cc1ccccc1)C(=O)N[C@H](C(=O)N[C@@H](CC(N)=O)C(=O)N[C@@H](CCCNC(=N)N)C(=O)N[C@@H](CC(C)C)C(N)=O)[C@@H](C)CC) [compound 52]	+	+
84 (F[AllylGly]IGRN-NH2; N-terminus assumed; SMILES C=CC[C@H](NC(=O)[C@@H](N)Cc1ccccc1)C(=O)N[C@H](C(=O)NCC(=O)N[C@@H](CCCNC(=N)N)C(=O)N[C@@H](CC(N)=O)C(N)=O)[C@@H](C)CC) [compound 84]	+	+
21 (I[AllylGly]IGRL-NH2; N-terminus assumed; SMILES C=CC[C@H](NC(=O)[C@@H](N)[C@@H](C)CC)C(=O)N[C@H](C(=O)NCC(=O)N[C@@H](CCCNC(=N)N)C(=O)N[C@@H](CC(C)C)C(N)=O)[C@@H](C)CC) [compound 21]	−	−
81 (F[AllylGly]IGRT-NH2; N-terminus assumed; SMILES C=CC[C@H](NC(=O)[C@@H](N)Cc1ccccc1)C(=O)N[C@H](C(=O)NCC(=O)N[C@@H](CCCNC(=N)N)C(=O)N[C@H](C(N)=O)[C@@H](C)O)[C@@H](C)CC) [compound 81]	−	
9 (T[AllylGly]IGRL-NH2; N-terminus assumed; SMILES C=CC[C@H](NC(=O)[C@@H](N)[C@@H](C)O)C(=O)N[C@H](C(=O)NCC(=O)N[C@@H](CCCNC(=N)N)C(=O)N[C@@H](CC(C)C)C(N)=O)[C@@H](C)CC) [compound 9]		−
60 (F[AllylGly]IGAL-NH2; N-terminus assumed; SMILES C=CC[C@H](NC(=O)[C@@H](N)Cc1ccccc1)C(=O)N[C@H](C(=O)NCC(=O)N[C@@H](C)C(=O)N[C@@H](CC(C)C)C(N)=O)[C@@H](C)CC) [compound 60]	+	
70 (F[AllylGly]IGWL-NH2; N-terminus assumed; SMILES C=CC[C@H](NC(=O)[C@@H](N)Cc1ccccc1)C(=O)N[C@H](C(=O)NCC(=O)N[C@@H](Cc1c[nH]c2ccccc12)C(=O)N[C@@H](CC(C)C)C(N)=O)[C@@H](C)CC) [compound 70]	+	
14 (D[AllylGly]IGRL-NH2; N-terminus assumed; SMILES C=CC[C@H](NC(=O)[C@@H](N)CC(=O)O)C(=O)N[C@H](C(=O)NCC(=O)N[C@@H](CCCNC(=N)N)C(=O)N[C@@H](CC(C)C)C(N)=O)[C@@H](C)CC) [compound 14]		−
68 (F[AllylGly]IGTL-NH2; N-terminus assumed; SMILES C=CC[C@H](NC(=O)[C@@H](N)Cc1ccccc1)C(=O)N[C@H](C(=O)NCC(=O)N[C@H](C(=O)N[C@@H](CC(C)C)C(N)=O)[C@@H](C)O)[C@@H](C)CC) [compound 68]		+
